The target in this data set is IRF4. To be noted: ASO.

“And” between values parts separate entries of the source, which are not always exact repeats. Equal values may be shown once. After the bases stand the sugars from the 5' end (letter, count) and the backbone: PS all phosphorothioate, else s phosphorothioate and o phosphodiester by linkage. Methylation of C is not given here. e = 2'-O-(2-methoxyethyl) (MOE); k = constrained ethyl (cEt); d = 2'-deoxy (DNA)

For CGCCCGACCCTCCCCA (sugars k3 d10 k3, PS), the target mRNA inhibition (MM.1R, 1 µM) is -24%. Take GGAGATCCGGCAGCCC (sugars k3 d10 k3, PS): the target mRNA inhibition (SK-MEL-28, 4 µM) came to 23%. As for CTAGATTCTCCCTGCA (sugars k3 d10 k3, PS), the target mRNA inhibition (SK-MEL-28, 4 µM) was 34%. Still for that read-out and setting: next, GTAAAGGAGTGCAGGA (sugars k3 d10 k3, PS): 9%; ACAGAGGACTTCGGGA (sugars k3 d10 k3, PS): -36%. On to ATGGCAGTCTACAGAA (sugars k3 d10 k3, PS), for which the target mRNA inhibition (SK-MEL-28, 4 µM) was -2%. Consider CCACCCTCCGTCTCAC (sugars k3 d10 k3, PS), for which the target mRNA inhibition (SK-MEL-28, 4 µM) worked out at 33%.

GGTCAAAAAGATGCAG (sugars k3 d10 k3, PS): the target mRNA inhibition (SK-MEL-28, 4 µM) is 51%. Consider GGCTGATAATTAATCT (sugars k3 d10 k3, PS), for which the target mRNA inhibition (SK-MEL-28, 4 µM) came to 47%. For the sequence GTCTACATCTACTCCA (sugars k3 d10 k3, PS), under “SK-MEL-28, 4 µM”, the target mRNA inhibition worked out at 38%. On to ACTGACTAACAGGGAG (sugars k3 d10 k3, PS), for which the target mRNA inhibition (SK-MEL-28, 4 µM) worked out at 49%.

Regarding CAGGACCCGGCTCCCG (sugars k3 d10 k3, PS), the target mRNA inhibition (SK-MEL-28, 4 µM) was 14%. For the sequence AGATGCGGAGGTTCCT (sugars k3 d10 k3, PS), the target mRNA inhibition (MM.1R, 1 µM) came out at 32%.

On to ACGAGAACGCACGGAC (sugars k3 d10 k3, PS), for which the target mRNA inhibition (SK-MEL-28, 4 µM) came to 40%. As to CACGAGGAAGCATAGA (sugars k3 d10 k3, PS), the target mRNA inhibition (SK-MEL-28, 4 µM) was determined as 56%.

For AAACAGCCGCCGGCAC (sugars k3 d10 k3, PS), the target mRNA inhibition (SK-MEL-28, 4 µM) came to 11%. As for “CTATAGTGTTCCAGGA (sugars k3 d9 k3 e1, PS)”, for the setting “MM.1R, 1 µM”, the target mRNA inhibition came out at 31%. Regarding GACGACAGCTGCGGAG (sugars k3 d10 k3, PS), the target mRNA inhibition (SK-MEL-28, 4 µM) is 45%. Take AGCTAACTTACAGGAC (sugars k3 d10 k3, PS): the target mRNA inhibition (SK-MEL-28, 4 µM) is -4%.

For the sequence “AGTATGAGAAACGGCC (sugars kkdddddddddkdkdk, PS)”, the target mRNA inhibition (MM.1R, 1 µM) stood at 6%. Take ATCAGAAATCACGAGG (sugars k3 d10 k3, PS): the target mRNA inhibition is 2% (MM.1R, 0.0625 µM); -9% (MM.1R, 0.074 µM); -12% (MM.1R, 0.222 µM); 1% (MM.1R, 0.25 µM); -4% (MM.1R, 0.666 µM); 6% (MM.1R, 1 µM). Also, the target mRNA inhibition (MM.1R, 2 µM) amounted to 9%; the target mRNA inhibition (MM.1R, 4 µM) is 36%; the target mRNA inhibition (SK-MEL-28, 4 µM) was 71%.

Take TGGAGAAGTCCCGTGG (sugars k3 d10 k3, PS): under “MM.1R, 1 µM”, the target mRNA inhibition was -9%. For CTACTGGGTACATGGC (sugars k3 d10 k3, PS), under “SK-MEL-28, 4 µM”, the target mRNA inhibition was determined as 84%. Take CCCGAGGCCGGAGACC (sugars k3 d10 k3, PS): the target mRNA inhibition (SK-MEL-28, 4 µM) amounted to 6%. As for GGCACTACTTCCAAAA (sugars k3 d10 k3, PS), under “SK-MEL-28, 4 µM”, the target mRNA inhibition came to 31%.

For “AGTTCATGTAAAGTCT (sugars kdddddddddkekeke, PS)”, the target mRNA inhibition (MM.1R, 1 µM) is 29% and 10%. Regarding CACTCAGCAAGTGTCT (sugars k3 d10 k3, PS), the target mRNA inhibition (SK-MEL-28, 4 µM) was found to be 50%. With ATTCTCCTCAACCGCT (sugars k3 d10 k3, PS), the target mRNA inhibition (SK-MEL-28, 4 µM) is 35%. Same read-out and setting: next, GAACAGGAAGCCACTA (sugars k3 d10 k3, PS): 23%. As for “GACACTTTTAGAGAGG (sugars kkdddddddddekeke, PS)”, where the note is “MM.1R, 1 µM”, the target mRNA inhibition amounted to 22%. As for AGTTCATGTAAAGTCT (sugars k3 d10 k3, PS), the target mRNA inhibition (SK-MEL-28, 4 µM) is 56% and 61%.

As for GTACTTTCTCAAAACC (sugars k3 d10 k3, PS), the target mRNA inhibition (SK-MEL-28, 4 µM) worked out at 70%. Same read-out and setting: next, TTATTTGTGGCTCAAC (sugars k3 d10 k3, PS): 18%; GGTGTGTAAGGTCTGA (sugars k3 d10 k3, PS): 41%. As for CATTGGTACGGGATTT (sugars k3 d10 k3, PS), the target mRNA inhibition (SK-MEL-28, 4 µM) is 16%.

Turning to TGAAACTGAGAGTGCG (sugars k3 d10 k3, PS), the target mRNA inhibition (SK-MEL-28, 4 µM) stood at 19%. For AATGTAGGGATACAGC (sugars k3 d10 k3, PS), the target mRNA inhibition (SK-MEL-28, 4 µM) came out at 62%.

For the sequence CTCTGCTCTGCACTCG (sugars k3 d10 k3, PS), the target mRNA inhibition (SK-MEL-28, 4 µM) worked out at 41%. Take GACATAAAGGACCCCG (sugars k3 d10 k3, PS): where the note is “MM.1R, 1 µM”, the target mRNA inhibition was determined as 8%. In the case of “AAGTTCATGTAAAGTC (sugars kdddddddddkekeke, PS)”, for the setting “MM.1R, 1 µM”, the target mRNA inhibition is 14% and 21%. On to CACGGGAATTTCCATT (sugars k3 d10 k3, PS), for which, under “SK-MEL-28, 4 µM”, the target mRNA inhibition is 71%. GGATTGATGTGATAGC (sugars k3 d10 k3, PS): the target mRNA inhibition runs as follows: (MM.1R, 0.0625 µM) 7% and 24%; (MM.1R, 0.25 µM) 24% and 20%; (MM.1R, 1 µM) 59% and 60%; (MM.1R, 4 µM) 88%. TCCTTTAAACAGTGCC (sugars k3 d10 k3, PS): for the setting “SK-MEL-28, 4 µM”, the target mRNA inhibition was 50%.

For “GAAGCATTTTATCATC (sugars kkkdddddddddkeke, PS)”, the target mRNA inhibition (MM.1R, 1 µM) was found to be 8%. With AAAGGCCAAATTGCAA (sugars k3 d10 k3, PS), where the note is “SK-MEL-28, 4 µM”, the target mRNA inhibition was 52%.

As for TCAACAGCAGGTTTTG (sugars k3 d10 k3, PS), the target mRNA inhibition (SK-MEL-28, 4 µM) came to 41%. Take “ACCTCAGTTTGTGAAG (sugars e1 k2 d9 k2 e2, PS)”: the target mRNA inhibition (MM.1R, 1 µM) was 2%.

AGGTAGTGGCCCCAGC (sugars k3 d10 k3, PS): the target mRNA inhibition (SK-MEL-28, 4 µM) is 60%. On to “TCTATAGTGTTCCAGG (sugars kkkdddddddddkeke, PS)”, for which the target mRNA inhibition is, setting by setting: (MM.1R, 0.074 µM) 22%; (MM.1R, 0.222 µM) 34%; (MM.1R, 0.666 µM) 56%; (MM.1R, 1 µM) 68%; (MM.1R, 2 µM) 81%.

GGAGTACCCGCAGAGA (sugars k3 d10 k3, PS): the target mRNA inhibition (SK-MEL-28, 4 µM) was found to be 25%. CCTACATACATTAATA (sugars k3 d10 k3, PS): for the setting “SK-MEL-28, 4 µM”, the target mRNA inhibition is -7%. For TTTAAAATATCGCCCA (sugars k3 d10 k3, PS), the target mRNA inhibition (MM.1R, 1 µM) was -1%. For the sequence AAGATACAAAACGGAC (sugars k3 d10 k3, PS), under “SK-MEL-28, 4 µM”, the target mRNA inhibition turned out to be 39%.

For the sequence GCTCAGCGCAGATGGG (sugars k3 d10 k3, PS), for the setting “SK-MEL-28, 4 µM”, the target mRNA inhibition was -2%.

On to “TTCATGTAAAGTCTGC (sugars kdddddddddkekeke, PS)”, for which the target mRNA inhibition (MM.1R, 1 µM) was 9% and 3%. On to GCTCCCGACACGCGCC (sugars k3 d10 k3, PS), for which the target mRNA inhibition (MM.1R, 1 µM) was 3% and 19%.

In the case of “CTGTTACCGATGCTTC (sugars kddddddddddkekek, PS)”, the target mRNA inhibition (MM.1R, 1 µM) is 36% and 26%. On the same count and under the same terms, next, “TTCATGTAAAGTCTGC (sugars kkdddddddddkdkdk, PS)”: 14% and 35%.

Regarding GCGCGGACGCACGGAG (sugars k3 d10 k3, PS), the target mRNA inhibition (SK-MEL-28, 4 µM) stood at 2%. Take “CGTGTGCTTGCCAAGC (sugars kkdddddddddkekek, PS)”: the target mRNA inhibition (MM.1R, 1 µM) is 49% and 43%. Take CATTTTATCATCCGAA (sugars k3 d10 k3, PS): the target mRNA inhibition (SK-MEL-28, 4 µM) amounted to 55%. With AGGAACAAGTGTATCT (sugars k3 d10 k3, PS), the target mRNA inhibition (SK-MEL-28, 4 µM) came to 46%. As for GAGTATTTCATAGCTA (sugars k3 d10 k3, PS), where the note is “SK-MEL-28, 4 µM”, the target mRNA inhibition came out at 71%.

Values taken from the OligoGym collection.
